Source: US20260355196A1, “INHIBITORS AND DEGRADERS OF PIP4K PROTEIN” (Larkspur Biosciences, Inc., priority 2023, published 2026)

Biological target: T1, PIP4K2C (Homo sapiens, UniProt Q8TBX8)
T1 sequence (Q8TBX8 1-421): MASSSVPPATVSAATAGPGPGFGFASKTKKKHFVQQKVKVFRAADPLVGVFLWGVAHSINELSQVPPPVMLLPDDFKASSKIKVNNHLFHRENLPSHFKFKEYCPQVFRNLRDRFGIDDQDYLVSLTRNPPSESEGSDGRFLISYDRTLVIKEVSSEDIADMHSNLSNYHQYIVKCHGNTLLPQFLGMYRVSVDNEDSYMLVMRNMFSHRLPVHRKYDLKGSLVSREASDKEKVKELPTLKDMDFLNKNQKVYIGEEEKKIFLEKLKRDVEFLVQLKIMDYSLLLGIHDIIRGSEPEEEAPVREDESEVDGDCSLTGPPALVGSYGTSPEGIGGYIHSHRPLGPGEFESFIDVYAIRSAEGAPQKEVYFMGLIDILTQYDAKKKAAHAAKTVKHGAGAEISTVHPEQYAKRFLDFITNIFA
Assay: HiBiT PIP4K2C degradation assay in MOLT-4 cells (endogenous PIP4K2C C-terminally tagged with HiBiT)
Format: cell-based
Set-up: untagged in primary human PBMCs and monocyte-derived dendritic cells
Conditions: 6 hours of incubation time, rather than 24 hours; MOLT-4, top concentration 10 micromolar; read-out: HiBIT-degradation MOLT4 PIP4k2C DC50 (6 hours, marked *)
Method in brief: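 MOLT-4 cells with endogenous PIP4K2C C-terminally HiBiT-tagged by CRISPR were treated with a 10-point, 3-fold dilution series from 10 micromolar, in duplicate, for 24 h or 6 h at 37 C. Remaining tagged protein read by HiBiT lytic luminescence; DC50 from Hill-equation fit.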

DC50 [nM]	SMILES
< 500	Cn1nc(C2CCC(=O)NC2=O)c2ccc(C3CCN(CC4(O)CCN(C(=O)O[C@H]5CC[C@H](Nc6ncc(F)c(-c7cccc(-c8ccccc8)c7)n6)CC5)CC4)CC3)cc21 (stereo partly drawn) [Compound 646, trans-4-((4-([1,1′-biphenyl]-3-yl)-5-fluoropyrimidin-2-yl)amino)cyclohexyl 4-((4-(3-(2,6-dioxopiperidin-3-yl)-1-methyl-1H-indazol-6-yl)piperidin-1-yl)methyl)-4-hydroxypiperidine-1-carboxylate]
< 500	Cc1ccn(-c2cccc(-c3nc(N[C@H]4CC[C@H](C(=O)N5CCC(O)(CN6CCN(c7ccc(NC8CCC(=O)NC8=O)cc7F)CC6)CC5)CC4)ncc3F)c2)c(=O)c1 (stereo partly drawn) [Compound 470, trans-3-((3-fluoro-4-(4-((1-(4-((5-fluoro-4-(3-(4-methyl-2-oxopyridin-1 (2H)-yl)phenyl)pyrimidin-2-yl)amino)cyclohexane-1-carbonyl)-4-hydroxypiperidin-4-yl)methyl)piperazin-1-yl)phenyl)amino)piperidine-2,6-dione]
< 500	O=C1CCC(n2c(=O)oc3cc(N4CCC(CCN5CCN(C(=O)[C@@H]6CCC[C@H](Nc7ncc(F)c(-c8cccc(-n9ccccc9=O)c8)n7)C6)CC5)CC4)ccc32)C(=O)N1 (relative stereo) [Compound 386, 3-(6-(4-(2-(4-(cis-3-((5-fluoro-4-(3-(2-oxopyridin-1(2H)-yl)phenyl)pyrimidin-2-yl)amino)cyclohexane-1-carbonyl)piperazin-1-yl)ethyl)piperidin-1-yl)-2-oxobenzo[d]oxazol-3 (2H)-yl)piperidine-2,6-dione]
< 500	Cc1ccn(-c2cccc(-c3nc(N[C@H]4CC[C@H](C(=O)N5CCC(CN6CCN(c7ccc(NC8CCC(=O)NC8=O)cc7F)CC6)CC5)CC4)ncc3F)c2)c(=O)c1 (stereo partly drawn) [Compound 471, trans-3-((3-fluoro-4-(4-((1-(4-((5-fluoro-4-(3-(4-methyl-2-oxopyridin-1 (2H)-yl)phenyl)pyrimidin-2-yl)amino)cyclohexane-1-carbonyl)piperidin-4-yl)methyl)piperazin-1-yl)phenyl)amino)piperidine-2,6-dione]
< 500	O=C1CCC(Nc2ccc(C3CCN([C@H]4CC[C@H](C(=O)N[C@H]5CC[C@H](Nc6ncc(F)c(-c7cccc(N8CCCCC8=O)c7)n6)CC5)CC4)CC3)c(F)c2)C(=O)N1 (single isomer, unassigned) [Compound 592]
< 500	O=C1CCC(Nc2ccc(N3CCC(CN4CCC(CC(=O)N[C@H]5CC[C@H](Nc6ncc(F)c(-c7cccc(-n8ccccc8=O)c7)n6)CC5)CC4)CC3)c(F)c2)C(=O)N1 (stereo partly drawn) [Compound 704, trans-2-(1-((1-(4-((2,6-dioxopiperidin-3-yl)amino)-2-fluorophenyl)piperidin-4-yl)methyl)piperidin-4-yl)-N-(4-((5-fluoro-4-(3-(2-oxopyridin-1 (2H)-yl)phenyl)pyrimidin-2-yl)amino)cyclohexyl)acetamide]
< 500	O=C1CC[C@H](Nc2ccc(N3CCN([C@H]4CC[C@H](C(=O)N[C@H]5CC[C@H](Nc6ncc(F)c(-c7cccc(-n8ccccc8=O)c7)n6)CC5)CC4)CC3)c(F)c2)C(=O)N1 (single isomer, unassigned) [Compound 603]
< 500	O=C1CCC(Nc2ccc(N3CCC(CC4CCN(C(=O)[C@H]5CC[C@H](Nc6ncc(F)c(-c7cccc(-n8ccccc8=O)c7)n6)CC5)CC4)CC3)c(F)c2)C(=O)N1 (stereo partly drawn) [Compound 400, trans-3-((3-fluoro-4-(4-((1-(4-((5-fluoro-4-(3-(2-oxopyridin-1(2H)-yl)phenyl)pyrimidin-2-yl)amino)cyclohexane-1-carbonyl)piperidin-4-yl)methyl)piperidin-1-yl)phenyl)amino)piperidine-2,6-dione]
< 500	O=C1CCC(Nc2ccc(N3CCC(N4CCC(NC(=O)[C@H]5CC[C@H](Nc6ncc(F)c(-c7cccc(-c8ccc[nH]c8=O)c7)n6)CC5)CC4)C(F)C3)c(F)c2)C(=O)N1 (stereo partly drawn) [Compound 453, trans-N-(1′-(4-((2,6-dioxopiperidin-3-yl)amino)-2-fluorophenyl)-3′-fluoro-[1,4′-bipiperidin]-4-yl)-4-((5-fluoro-4-(3-(2-oxo-1,2-dihydropyridin-3-yl)phenyl)pyrimidin-2-yl)amino)cyclohexane-1-carboxamide]
< 500	O=C1CCC(Nc2ccc(C3CCN(C4CCN(C(=O)O[C@H]5CC[C@H](Nc6ncc(F)c(-c7cccc(N8CCOCC8)c7)n6)CC5)CC4)CC3)c(F)c2)C(=O)N1 (stereo partly drawn) [Compound 676, trans-4-((5-fluoro-4-(3-morpholinophenyl)pyrimidin-2-yl)amino)cyclohexyl 4-(4-((2,6-dioxopiperidin-3-yl)amino)-2-fluorophenyl)-[1,4′-bipiperidine]-1′-carboxylate]
< 500	O=C1CCC(Nc2ccc(N3CCN(CC4CCN(C(=O)[C@H]5CC[C@H](Nc6ncc(F)c(-c7cccc(C8CC8)c7)n6)CC5)CC4)CC3)c(F)c2)C(=O)N1 (stereo partly drawn) [Compound 555, trans-3-[4-[4-[[1-[4-[[4-(3-cyclopropylphenyl)-5-fluoro-pyrimidin-2-yl]amino]cyclohexanecarbonyl]-4-piperidyl]methyl]piperazin-1-yl]-3-fluoro-anilino]piperidine-2,6-dione]

Same assay, conditions: 24 hours incubation, MOLT-4, top concentration 10 micromolar; read-out: HiBIT-degradation MOLT4 PIP4k2C 24 hours DC50

DC50 [nM]	SMILES
< 500	O=C1CCC(Nc2ccc(C3CCN(CC(=O)N4CCN(C(=O)[C@H]5CCC[C@@H](Nc6ncc(Cl)c(-c7cccc(-c8ccccc8)c7)n6)C5)CC4)CC3)cc2)C(=O)N1 (relative stereo) [Compound 57, cis-3-((4-(1-(2-(4-(3-((4-([1,1′-biphenyl]-3-yl)-5-chloropyrimidin-2-yl)amino)cyclohexane-1-carbonyl)piperazin-1-yl)-2-oxoethyl)piperidin-4-yl)phenyl)amino)piperidine-2,6-dione]
< 500	Cn1c(=O)n(C2CCC(=O)NC2=O)c2ccc(C3CCN(C4CCN(CC(=O)N5CCC(Nc6ncc(Cl)c(-c7cccc(-c8ccccc8)c7)n6)CC5)CC4)CC3)cc21 (stereo not drawn) [Compound 72, 3-(5-(1′-(2-(4-((4-([1,1′-biphenyl]-3-yl)-5-chloropyrimidin-2-yl)amino)piperidin-1-yl)-2-oxoethyl)-[1,4′-bipiperidin]-4-yl)-3-methyl-2-oxo-2,3-dihydro-1H-benzo[d]imidazol-1-yl)piperidine-2,6-dione]
< 500	O=C1CCC(Nc2ccc(N3CCC(CN4CCC(NC(=O)[C@H]5CC[C@H](Nc6ncc(F)c(-c7cccc(-n8ccccc8=O)c7)n6)CC5)CC4)CC3)c(F)c2)C(=O)N1 (relative stereo) [Compound 375, trans-N-(1-((1-(4-((2,6-dioxopiperidin-3-yl)amino)-2-fluorophenyl)piperidin-4-yl)methyl)piperidin-4-yl)-4-((5-fluoro-4-(3-(2-oxopyridin-1(2H)-yl)phenyl)pyrimidin-2-yl)amino)cyclohexane-1-carboxamide]
< 500	O=C1CCC(n2c(=O)oc3cc(C4CCN(CCC5CCN(C(=O)[C@H]6CC[C@H](Nc7ncc(F)c(-c8cccc(-c9ccc[nH]c9=O)c8)n7)CC6)CC5)CC4)ccc32)C(=O)N1 (stereo partly drawn) [Compound 368, 3-(6-(1-(2-(1-(trans-4-((5-fluoro-4-(3-(2-oxo-1,2-dihydropyridin-3-yl)phenyl)pyrimidin-2-yl)amino)cyclohexane-1-carbonyl)piperidin-4-yl)ethyl)piperidin-4-yl)-2-oxobenzo[d]oxazol-3 (2H)-yl)piperidine-2,6-dione]
< 500	O=C1CCC(N2Cc3cc(C4CCN(C(=O)C5CCN(C(=O)[C@H]6CCC[C@@H](Nc7ncc(Cl)c(-c8cccc(-c9ccccc9)c8)n7)C6)CC5)CC4)ccc3C2=O)C(=O)N1 (relative stereo) [Compound 60, cis-3-(5-(1-(1-(3-((4-([1,1′-biphenyl]-3-yl)-5-chloropyrimidin-2-yl)amino)cyclohexane-1-carbonyl)piperidine-4-carbonyl)piperidin-4-yl)-1-oxoisoindolin-2-yl)piperidine-2,6-dione]
< 500	O=C1CCC(n2c(=O)oc3cc(C4CCN(CC5CCN(CC(=O)N6CCC(Nc7ncc(F)c(-c8cccc(-n9ccccc9=O)c8)n7)CC6)CC5)CC4)ccc32)C(=O)N1 (stereo not drawn) [Compound 303, 3-(6-(1-((1-(2-(4-((5-fluoro-4-(3-(2-oxopyridin-1(2H)-yl)phenyl)pyrimidin-2-yl)amino)piperidin-1-yl)-2-oxoethyl)piperidin-4-yl)methyl)piperidin-4-yl)-2-oxobenzo[d]oxazol-3 (2H)-yl)piperidine-2,6-dione]
500 to 1000	O=C1CCC(Nc2ccc(C3CCN(CC4CCN(CC(=O)N5CCC(Nc6ncc(Cl)c(-c7cccc(-c8ccccc8)c7)n6)CC5)CC4)CC3)cc2)C(=O)N1 (stereo not drawn) [Compound 53, 3-((4-(1-((1-(2-(4-((4-([1,1′-biphenyl]-3-yl)-5-chloropyrimidin-2-yl)amino)piperidin-1-yl)-2-oxoethyl)piperidin-4-yl)methyl)piperidin-4-yl)phenyl)amino)piperidine-2,6-dione]
